{"source": "patent US20220409601A1", "about": "“COMBINATION CANNABINOID-NAD+ PRECURSOR FORMULATION FOR TREATMENT OF INFLAMMATION AND METHODS RELATED THERETO” (priority 2019, published 2022)", "key": {"chondrocytes (C-28/I2)": {"test_system": "chondrocytes (C-28/I2)", "assay": "toxicity screen, maximum tolerable concentration in chondrocytes", "excerpt": "(§1) A clonal derivative of ATCC-certified normal chondrocytes was used for a study to determine cytokine expression. The parent line was originally derived from costal cartilage of adolescent […]. The cell line used is C-28/I2 accession number CVCL 0187. The cells were immortalized via retroviral vector-mediated SV40 Large T antigen expression. Cells were confirmed negative for mycoplasma contamination and genotyped by STR analysis to verify cell identity. This cell line is widely used as a model for studying normal and pathological cartilage repair mechanisms and inflammation.\n(§2) The cells were cultured at 37° C. with 5% CO2, DMEM/F12 media supplemented with 10% heat-inactivated fetal bovine serum. Antimicrobials were not added to the media. Cells were maintained between 40 and 80% confluency to avoid terminal differentiation. Cells used for the experiments had been passaged no more than ten times prior to each experiment.\nA series of pilot studies were performed to design the final full-scale experiment. First, a toxicity screen for each test compound was performed to establishment maximum tolerable concentrations in this model system. Second, assays were run to establish the optimal means of inducing a pro-inflammatory state in the cell culture system. Third, conditions were tested to set the most favorable dilution scheme in order to maintain samples within the linear range of detection for each analyte. To establish the test concentrations for each test compound, chondrocytes were treated with a serial dilution of each compound, for 24 and 48 hours under serum free conditions. Oleocanthal or CBD were tested at two-fold dilutions down from 50 micromolar (μM)."}, "GM-CSF": {"test_system": "GM-CSF", "conditions": "IL1β 10 ng/ml, 24 hours, no serum", "excerpt": "as §1, §2"}, "[1]": {"conditions": "24 hours post-treatment, serum free, chondrocytes, microscopy (vacuolation, blebbing, reduced cell count), unit not given"}, "[2]": {"conditions": "High level (CBD 6.00 μM, niacin 900 μM), FIG. 1, 2C"}, "[3]": {"conditions": "Moderate level (CBD 2.00 μM, niacin 300 μM), FIG. 1, 2B"}}, "note": "Where two headings read alike, the source gives them in different places.", "data": [{"smiles": "C=C(C)[C@@H]1CCC(C)=C[C@H]1c1c(O)cc(CCCCC)cc1O", "note": "[CBD, cannabidiol]", "values": [{"measurement": "maximum tolerable concentration", "setting": "chondrocytes (C-28/I2); [1]", "value": 604}, {"measurement": "effect on GM-CSF expression", "setting": "GM-CSF; [2]", "value": "This effect was not seen"}, {"measurement": "effect on GM-CSF expression", "setting": "GM-CSF; [3]", "value": "This effect was not seen"}]}, {"smiles": "O=C(O)c1cccnc1", "note": "[niacin, nicotinic acid]", "values": [{"measurement": "maximum tolerable concentration", "setting": "chondrocytes (C-28/I2); human, 24 h", "value": 1, "unit": "mM"}, {"measurement": "effect on GM-CSF expression", "setting": "GM-CSF; [2]", "value": "This effect was not seen"}, {"measurement": "effect on GM-CSF expression", "setting": "GM-CSF; [3]", "value": "This effect was not seen"}]}, {"smiles": "C/C=C(/C=O)[C@@H](CC=O)CC(=O)OCCc1ccc(O)cc1", "note": "[oleocanthal]", "values": [{"measurement": "maximum tolerable concentration", "setting": "chondrocytes (C-28/I2); [1]", "value": 604}]}]}
